Test system: CXCR4 selector in IL2RG locus, CD34+ cells
Assay: SMArT-D in CD34+ cells, IL2RG locus, CXCR4 selector
Assay type: cell-based, human
Details: lower dose (80 nM), after washout
Protocol: CD34+ cells were edited according to a previously optimized protocol (Schiroli et al., 2017). Briefly, 5×10^5 CD34+ cells/ml were stimulated in serum-free StemSpan medium (StemCell Technologies) supplemented with penicillin, streptomycin, glutamine, 1 μM SR-1 (Biovision), 50 μM UM171 (STEMCell Technologies), 10 μM PGE2 added only at the beginning of the culture (Cayman), and human early-acting cytokines (SCF 100 ng/ml, Flt3-L 100 ng/ml, TPO 20 ng/ml, and IL-6 20 ng/ml; all purchased from Peprotech). After 3 days of pre-stimulation, cells were washed with PBS and electroporated using P3 Primary Cell 4D-Nucleofector X Kit and program EO-100 (Lonza). Cells were electroporated with 2.5-1.25 μM of RNPs. Transduction with AAV6 was performed at a dose of 1×10^4 vg/cell 15′ after electroporation. […] Gene editing efficiency was measured from cultured cells in vitro 3 days after electroporation by flow cytometry measuring the percentage of cells expressing the GFP/truncated NGFR/CXCR4 marker or by digital droplet PCR analysis designing primers and probe on the junction between the vector sequence and the targeted locus and on control sequences utilized as normalizer.

`C[C@H]1c2cccc(O)c2C(=O)C2=C(O)[C@]3(O)C(=O)C(C(N)=O)=C(O)[C@@H](N(C)C)[C@@H]3[C@@H](O)[C@@H]21` [doxycycline] was tested, and the “CXCR4-overexpressing cells in the most primitive compartment” value was “up to 13%”.
